Measured values published in patent US6060451A, “Thrombin inhibitors based on the amino acid sequence of hirudin” (The National Research Council of Canada, priority 1995, dated 2000).
Where “and” joins values, the source holds several entries; their conditions need not be identical. Identical values can stand only once. Non-standard residues stand in square brackets, D forms with d.

Key:
thrombin [1] = biological target: T1, thrombin (Homo sapiens, UniProt P00734); experiment: Thrombin time in buffer containing fibrinogen (dTT); format: biochemical; details: read-out: IC50 dTT (concentration required to double thrombin time)
Text: *Concentration of compound required to double thrombin time in buffer

thrombin [2] = biological target: T1, thrombin; experiment: Antithrombin activity in vitro, Ki (Table III); format: biochemical; details: first test where two are given; means for 3-5 observations
Method: The reactions were initiated by addition of the substrate dissolved in 0.1 M Tris-HCl buffer, pH 7.8 to a preincubated solution of enzyme (0.4 or 0.04 nM) and variable concentrations of inhibitor dissolved in the same buffer. Initial velocities were recorded and Ki values were determined graphically by weighted linear regression of Dixon plots in the case of competitive inhibition, or by the method of Baici (Baici, 1981) for hyperbolic inhibition. Fluorogenic assays were conducted using the same conditions and instrument as above operating in the fluorescence mode in the Ratio (λex=383 nm, λem=455 nm). Fluorescence intensities were calibrated with 7-amino-4-methyl coumarin solution of known concentration. The specificity of the synthetic peptides of the present invention for human α-thrombin may also be determined by comparing their relative inhibitory activities towards both human α-thrombin and bovine α-thrombin and trypsin by comparing Ki values obtained in the amidolytic assay of thrombin activity.

platelets = experiment: Thrombin-induced platelet aggregation; format: cell-based
Method: The inhibitory activity of some of the peptides of the present invention toward thrombin is reflected by their ability to inhibit thrombin-mediatedplatelet aggregation as shown in FIG. 2. Platelet rich plasma containing variable concentrations of P79 is treated with thrombin. Platelet aggregation, reflected by increased light transmittance is measured on a Bio Data PAP-4 aggregometer.

human plasma clotting = experiment: Human plasma clotting time; format: biochemical; details: read-out: IC50 plasma clotting time (concentration required to inhibit human plasma clotting time by 50%)
Method: Thus, for the determination of prothrombin time, 50 μl of reconstituted citrated normal human plasma (Sigma, St-Louis, Mo.) is mixed with 50 μl of thromboplastin solution at 37° C. in a 400 μl cuvette. […] The clotting time is recorded following recalcification with 100 μl of 25 mM CaCl2. The clotting time in the absence of inhibitor was between 19-22 sec.
The same procedure is adopted for the determination of activated partial thromboplastin time except that reconstituted plasma is activated for 3 minutes with cephalin (Sigma, St-Louis, Mo.).
**Concentration of compound required to inhibit human plasma clotting tim

[3] = tested on: carotid artery thrombosis; experiment: Ferric chloride injury-induced thrombosis model in carotid artery; details: rat carotid artery, FeCl3 injury; control patency time 19 ± 1 min
Method: Species: Rat, male, Sprague-Dawley.
Animals were laid on a heating pad which was maintained at 37° C. The carotid artery was approached through a midline cervical incision. Carefully blunt dissection was used to expose and isolate the vessel from the carotid sheath. […] The vessel temperature was monitored for 60 minutes after application of FeCl3. […] The site of the experiment was covered with aluminum foil in order to protect the FeCl3 from degradation by light.
All the samples were kept on ice and centrifuged as soon as possible at 2000 Rpm for 10 min., 4° C. The plasma was analyzed in duplicate for activated partial thromboplastin time on a haemostasis analyzer (STAGO ST4™).
From a group of four animals, two arteries were stored at -80° C. for further analysis. The others were observed under a light microscope at 40× (Leica™) for quantification of the occlusion (complete, partial, no occlusion).
In some studies, the animal was receiving the compound by i.v. infusion instead of a bolus. In this case, the jugulars and femoral veins were cannulated with Sylastic tubing (I.D. 0.025IN). This left jugular was used for blood sampling and the right one for the infusion line. The compound was infused 30 minutes before injury and then for an other 30 minutes post-injury. Blood samples were taken at time 0, 30 and 60 minutes for APTT test and thrombin test (1 ml of blood/90 ul of citrated buffer).

[4] = tested on: platelet deposition on arterial media; experiment: Pig angioplasty model, ex vivo platelet deposition on arterial media; format: in vivo
Method: The study investigates the dose range required to inhibit platelet deposition on arterial media and aggregation ex vivo in the pig using a bolus and infusion regimen of the compounds of the invention. The study was carried out according to Lam, J. Y. T. et al., Circulation 84:2, August 1991, 814-820. A brief outline of the protocol follows.
Normal 3-4 month old pigs were used. In all pigs, autologous platelets were labeled with 300-400 μCi ^111 In-tropolone 18-24 hours before angioplasty. The pigs were sedated with 300 mg i.m. ketamine. After inhalation of the ether, the pigs were intubated, mechanically ventilated with room air by a respirator and maintained anesthetized with 0.5% halothane. Immediately after catheter insertion, a single bolus of heparin was administered to animals receiving platelet-inhibitor therapy and their matching controls corresponding to a dose less than 3.1 units/kg/min. Heparin was not administered to animals receiving hirudin or their matching controls.
An 8F balloon dilation catheter was advanced under fluoroscopic control through a right femoral cut down into the left and right common carotid arterial segment between the fifth and fourth vertebrae. Five inflations were performed, 30 seconds each at 6 atm with 60 seconds between inflations. The angiographic lumen diameter before dilation ranged from 5 to 6 mm during dilation, the diameter of the inflated balloon within the artery was not more than 10% greater than the original arterial lumen. […]
The platelet deposition on each dilated artery was calculated from the platelet counts and ^111 In activity on the arterial wall and in the blood obtained. The percentage of radioactivity bound to platelets was determined and the number of platelets per counts per minute was calculated from known blood platelet counts. The number of platelets deposited on the arterial segments per square centimeter was calculated by dividing the arterial segment counts per minute by both the number of platelets per counts per minute and the arterial surface area.

[5] = tested on: venous thrombosis in vena cava; experiment: Venous thrombosis model (balloon catheter induced-injury and stasis in vena cava); format: in vivo, rat; details: rats, i.v. bolus
Method: Rats ranging in weight from 350 g-450 g were anaesthetized with urethane [50%] at 1500 mg/kg IP. The abdomen and neck were shaved and prepared for surgery.
An incision was made from the base of the sternum to approximately 10-20 mm up from the penile sheath. Another incision was made across the end of the incision (90 degree) to create a flap to be hemostat open. […] Two sutures were loosely looped around the vein(1) and the vein and artery(2), just posterior to the renal veins and arteries. All other branches coming off dorsally from the vena cava were ligated as well as any other veins which may branch of this vein (approximately 4-6 depending on rat). Two more sutures were looped around the vein(1) and artery and vein(2) at the bifurcation of the femoral vein and artery. The right jugular vein was isolated, for later injection of compound.
An incision in the upper interior leg was made and the femoral vein and artery were exposed. The femoral vein was isolated and two sutures were looped around it. One suture was ligated distally, and the other one was pulled tight (proximal) to stop blood flow through the vessel. A very small incision was made into the vein and a 2F fogarty catheter was inserted. The catheter was fed up the femoral vein to the upper sutures (near the renal veins). At this point, inject the compound via the isolated right jugular vein and wait 1 minute. At 1 minute inflate the fogarty catheter with enough saline to distend the vena cava, but still allowing the catheter to be pulled back down to the point of femoral bifurcation without bursting the vessel. This procedure was repeated 3 times. After the third passage, the catheter was removed and as quickly as possible, the femoral incision was ligated with the proximal suture and the suture which was looped around only the vena cava was ligated to stop return flow and allow thrombus growth and the timer was set for 30 minutes.
At this point, the intestines may be placed back in the body cavity, and moistened with saline if any drying has occurred, and skin kept closed with hemostat. […]

[6] = tested on: activated partial thromboplastin time; experiment: Increase in APTT, bolus plus infusion model; format: in vivo, rat; set-up: Infusion Dose needed to cause 2-4 fold increase in APTT: unit not given here; details: intravenous bolus followed by infusion

## (D-Phe)-Pro-Arg-(CH2)4 (CO)--[NH(CH2)4 (CO)]2 -DF-(4-thiahomoGlu)-PIPL-TFA salt [BCH-2758]
Thrombin [1]
  IC50: 4.9 nM
Thrombin [2]
  Ki: 0.95 nM
platelets
  IC50: 10 nM
Human plasma clotting
  IC50: 30 nM
[3]
  Dose to double patency time: 4 mg/kg

## Ac(D-Phe)-Pro-Arg-(CH2)4 (CO)--[NH--CH2 --CH=CH--CH2 --(CO)]2 -DFEPIPL-OH (Ac-[dF]PR[(CH2)4CO][NHCH2CH:CHCH2CO][NHCH2CH:CHCH2CO]DFEPIPL-OH; numbers in words are those of the source; also: Arg carbonyl bonded to (CH2)4 (non-amide backbone link)) [P184]
[4]; four animals
  Decrease of platelet deposition on arterial media relative to baseline control, mean: 61.2%
[4]; i.v. bolus 0.2 mg/kg then infusion 0.2 mg/kg/hr, four animals, paired T P=0.0001
  Platelet deposition after drug infusion, X±SEM: 39.8±12.7 % of control
[4]; i.v. bolus 0.2 mg/kg then infusion 0.2 mg/kg/hr, mean of three determinations per animal, animals 1-4, listed as BCH-1710
  Platelet deposition after drug infusion, single animals: 31.9 % of control and 23.7 % of control and 3.7 % of control and 84.3 % of control
Thrombin [1]
  IC50: 10.5 nM
Thrombin [2]
  Ki: 1.5 nM
[5]
  Minimum Bolus dose needed to achieve patency: 0.5 to 2 mg/kg
platelets
  IC50: 6 nM
[6]
  Bolus Dose needed to cause 2-4 fold increase in APTT: 1 mg/kg
  Infusion Dose needed to cause 2-4 fold increase in APTT: 125
Human plasma clotting
  IC50: 52 nM
[3]
  Dose to double patency time: 1 to 2 mg/kg
